Literature values in patent US20100166887A1, “DIBENZO[b,e][1,4]DIAZEPINE MODULATORS OF DOPAMINE RECEPTORS, SEROTONIN RECEPTORS, ADRENERGIC RECEPTORS, ACETYLCHOLINE RECEPTORS, AND/OR HISTAMINE RECEPTORS” (Auspex Pharmaceuticals, Inc., priority 2008, published 2010).

Target: human ether-a-gogo related gene (hERG) potassium channel (Homo sapiens, UniProt Q12809)
Details: Pearlstein et al., J. Med. Chem., 2003

human ether-a-gogo related gene (hERG) potassium channel, sequence (Q12809 whole entry): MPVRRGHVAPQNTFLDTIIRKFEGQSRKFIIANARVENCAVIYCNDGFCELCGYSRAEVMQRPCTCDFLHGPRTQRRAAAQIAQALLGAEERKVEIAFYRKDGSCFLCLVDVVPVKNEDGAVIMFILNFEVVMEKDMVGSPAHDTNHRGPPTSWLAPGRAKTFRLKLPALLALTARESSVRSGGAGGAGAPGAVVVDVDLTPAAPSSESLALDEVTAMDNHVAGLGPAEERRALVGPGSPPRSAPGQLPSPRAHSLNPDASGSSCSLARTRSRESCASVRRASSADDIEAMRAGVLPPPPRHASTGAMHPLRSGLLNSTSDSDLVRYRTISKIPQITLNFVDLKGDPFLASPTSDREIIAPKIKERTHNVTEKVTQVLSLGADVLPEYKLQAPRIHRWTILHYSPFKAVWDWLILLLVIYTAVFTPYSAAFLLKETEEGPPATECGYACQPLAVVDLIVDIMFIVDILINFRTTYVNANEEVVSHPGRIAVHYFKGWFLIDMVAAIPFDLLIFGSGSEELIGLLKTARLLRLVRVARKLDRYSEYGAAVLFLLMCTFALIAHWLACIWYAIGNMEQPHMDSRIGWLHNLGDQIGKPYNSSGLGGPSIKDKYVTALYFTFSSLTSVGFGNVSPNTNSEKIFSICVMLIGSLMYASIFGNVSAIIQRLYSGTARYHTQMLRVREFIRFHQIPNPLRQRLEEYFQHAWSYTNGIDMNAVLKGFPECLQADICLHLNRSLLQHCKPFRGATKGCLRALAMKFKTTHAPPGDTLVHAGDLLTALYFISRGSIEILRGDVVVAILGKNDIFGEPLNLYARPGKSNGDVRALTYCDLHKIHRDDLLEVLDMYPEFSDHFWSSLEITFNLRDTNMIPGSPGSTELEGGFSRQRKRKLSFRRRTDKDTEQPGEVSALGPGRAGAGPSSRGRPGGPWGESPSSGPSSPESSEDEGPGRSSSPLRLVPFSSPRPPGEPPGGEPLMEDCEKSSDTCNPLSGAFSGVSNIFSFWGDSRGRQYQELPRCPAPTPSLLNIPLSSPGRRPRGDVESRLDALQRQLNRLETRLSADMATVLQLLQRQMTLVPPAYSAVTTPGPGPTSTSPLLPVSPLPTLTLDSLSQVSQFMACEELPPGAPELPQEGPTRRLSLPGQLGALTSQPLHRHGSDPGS

## Clc1ccc2c(c1)N=C(N1CCNCC1)c1ccccc1N2 [N-desmethyl clozapine, 8-Chloro-11-(4-piperazino)-5H-dibenzo[b,e][1,4]diazepine]
  inhibition of the hERG potassium channel: inhibits
